# Experimental data: patent publication US9629851B2, “ROCK in combination with MAPK pathway” (Stichting Het Nederlands Kanker Instituut—Antoni van …, priority 2013, dated 2017)
# Assays:
# [1] = system: NRAS mutant melanoma cell lines; test: short-term viability assay (CellTiter-Blue, 3 days); format: cell-based, human; details: treatment-naïve NRAS mutant melanoma cell lines; ROCK inhibitor added to MAPK/ERK pathway inhibitor
# Method: FIG. 1A: NRAS mutant melanoma cell lines are sensitive to combinations of ROCK and MEK or ERK inhibitors; Cells were treated with a dilution series of ROCK inhibitor (left panel), MEK inhibitor (middle panel) or ERK inhibitor (right panel) either alone or in combination with MEK/ERK/ROCK inhibitor as indicated. After 3 days total cell numbers were determined with a Cell Titer-Blue assay. The y-axis represents the percentage of living cells.
# (§1) For short-term viability assays of inhibitors, cells were plated in 96-well format and treated on the next day with a dilution range of one inhibitor with or without a second inhibitor with a concentration as mentioned in the figure. After 3 days, cells were incubated with CellTiter-Blue (Promega) and fluorescence was measured with a TECAN Infinite M200 microplate reader. For proliferation assays, equal cell numbers were plated on 6 well dishes. The next day, cells were treated with one or more inhibitors and refreshed with medium with inhibitors every 3-4 days. […]
# To model inhibitor sensitivity of treatment-naïve NRAS mutant melanoma we made use of a panel of human metastatic melanoma cell lines carrying activating mutations in NRAS codon 61 (R, K, N), including cell lines available in the prior art. […] Presence of the NRAS mutation and absence of exon 15 BRAF mutations has been determined by conventional sequencing. […]
# [2] = system: NRAS mutant melanoma cells SK-MEL-147; test: SK-MEL-147 xenograft in NOD/SCID mice; format: in vivo; details: GSK1120212 0.05 mg/kg or GSK269962A 10 mg/kg alone, oral gavage once daily
# Method: Melanoma cells (5*10^5 SK-MEL-147) were subcutaneously injected into both flanks of NOD/SCID mice. Tumor sizes were measured with a caliper and tumor volume was calculated by the formula (a*b^2)/2 with ‘a’ being the longest diameter and ‘b’ the respective perpendicular diameter of the tumor. After the tumors reached a size of 20-100 mm3, mice received by oral gavage either vehicle, GSK1120212 (MEKi), (0.05 mg/kg), 10 mg/kg GSK269962A (ROCKi) or both drugs. N=10 for each group, except for ROCKi n=8. Error bars represent standard error of the mean (SEM).
# Six to ten week old male NOD/SCID mice were subcutaneously injected with 5*10^5 cells into both flanks. After the tumors reached a size of 50-150 mm^3 mice were treated with 0.05 or 0.1 mg/kg MEK inhibitor (GSK1120212) and/or ROCK inhibitor (GSK266962A, 10 mg/kg). Both GSK1120212 and GSK269962A were applied by oral gavage (in 5% Tween80, 3.25% ethanol, DMSO for GSK1120212 and in 10% Tween80, 6.5% ethanol, 10% DMSO for GSK266962A). Tumors were measured twice a week with a caliper. Tumor volume was calculated by the formula (a*b2)/2, with ‘a’ being the longest diameter and b′ the respective perpendicular diameter of the tumor. Mice were euthanized by CO2 when tumors reached a volume of 1 cm3, according to a protocol approved by the Institutional Animal Experiment Ethics Committee. […]
# [3] = system: NRAS mutant melanoma patients; details: cited from earlier work
# [4] = system: BRAF mutant melanoma patients; details: cited from earlier work
# MEK = details: cited from earlier work
# [5] = system: ERK inhibitor resistant sublines of BLM; test: inhibitor sensitivity of resistant sublines versus parental line; format: cell-based, human; details: sublines grown in 1 μM SCH772984
# Method: NRAS Mutation: Q61R BLM, SK-MEL-147. BRAF mutation: Mel 95.03, mel 888. All cell lines were cultured in Dulbecco's modified Eagle's Medium (DMEM, Gibco) supplemented with 9% fetal calf serum (Sigma) and 1% glutamine. To generate MEK and ERK inhibitor resistant sublines, cells were plated on 10 cm dishes. Medium containing 1 μM SCH772984 was added the next day and changed twice a week. After 2 weeks colonies were picked and expanded in the presence of the inhibitor. In addition, multiple colonies per 10 cm dish were trypsinized and expanded to obtain resistant pools.
# as §1, with “days. Cells were stained with crystal violet after 7-11 days of treatment.” for “days.”
# We assessed sensitivity to a panel of other inhibitors including ROCK inhibitors but observed mainly slight differences.
# c-Raf = c-Raf (Homo sapiens, UniProt P04049); details: B-Raf less than c-Raf; cited from earlier work
# Chain of c-Raf (P04049 whole entry): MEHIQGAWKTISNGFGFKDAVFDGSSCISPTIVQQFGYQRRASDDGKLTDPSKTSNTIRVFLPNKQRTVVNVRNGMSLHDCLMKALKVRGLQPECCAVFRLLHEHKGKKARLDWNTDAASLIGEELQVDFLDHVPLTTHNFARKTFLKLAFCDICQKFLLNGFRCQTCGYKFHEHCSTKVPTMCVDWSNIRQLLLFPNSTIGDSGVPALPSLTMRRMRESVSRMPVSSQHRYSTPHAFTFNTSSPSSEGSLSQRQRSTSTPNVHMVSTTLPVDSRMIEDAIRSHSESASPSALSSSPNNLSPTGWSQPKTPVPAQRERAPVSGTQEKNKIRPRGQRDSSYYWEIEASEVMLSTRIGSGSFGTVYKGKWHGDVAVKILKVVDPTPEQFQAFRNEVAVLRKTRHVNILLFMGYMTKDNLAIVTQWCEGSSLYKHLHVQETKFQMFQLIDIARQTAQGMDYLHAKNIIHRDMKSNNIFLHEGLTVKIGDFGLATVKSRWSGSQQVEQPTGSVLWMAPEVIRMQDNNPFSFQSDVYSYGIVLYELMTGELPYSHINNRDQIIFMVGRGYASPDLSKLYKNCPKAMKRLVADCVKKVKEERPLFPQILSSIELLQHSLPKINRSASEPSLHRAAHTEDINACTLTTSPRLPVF
smiles,measurement,setting,value
O=S(=O)(c1cccc2cnccc12)N1CCCNCC1 [Fasudil],sensitization to MEK or ERK inhibitors,[1],sensitizers
CCn1c(-c2nonc2N)nc2cnc(Oc3cccc(NC(=O)c4ccc(OCCN5CCOCC5)cc4)c3)cc21 [GSK269962A],sensitization to MEK or ERK inhibitors,[1],sensitizers
same,effect as single agent,[2],only a weak effect as single agents
Cn1cnc2c(F)c(Nc3ccc(Br)cc3F)c(C(=O)NOCCO)cc21 [MEK162],median time to develop resistance,[3],3.7 months
same,median time to develop resistance,[4],3.3 months
O=C(NOCC1CC1)c1ccc(F)c(F)c1Nc1ccc(I)cc1Cl [PDI 84352],specificity and potency compared to other known MEK inhibitors,MEK,high degree of specificity and potency
Oc1cccc(-c2nc(N3CCOCC3)c3oc4ncccc4c3n2)c1 [PI-103],sensitivity of resistant sublines compared with parental line,[5],as sensitive to the dual PI3K/mTOR inhibitor PI-103 as the parental line
Cc1ccc(NC(=O)c2cccc(N(C)C)c2)cc1NC(=O)c1ccc(O)cc1 [ZM 336372],potency for B-Raf relative to c-Raf,c-Raf,"c-Raf, (B-Raf 10fold"
